Patent US10377753B2, “Substituted 4-azaindoles and their use as GluN2B receptor modulators” (Janssen Pharmaceutica NV, priority 2015, dated 2019)

Each compound was assayed against cloned human NR1/NR2B ion channels (Homo sapiens (Human), UniProt Q05586+Q13224) (assay: HNR2BC: effects of test articles on cloned human NR1/NR2B ion channels expressed in mammalian cells (FLIPR calcium flux)). Settings: cloned human NR1/NR2B ion channels, Table 5.
Sequence of cloned human NR1/NR2B ion channels (Q13224 27-1484, other chains not shown): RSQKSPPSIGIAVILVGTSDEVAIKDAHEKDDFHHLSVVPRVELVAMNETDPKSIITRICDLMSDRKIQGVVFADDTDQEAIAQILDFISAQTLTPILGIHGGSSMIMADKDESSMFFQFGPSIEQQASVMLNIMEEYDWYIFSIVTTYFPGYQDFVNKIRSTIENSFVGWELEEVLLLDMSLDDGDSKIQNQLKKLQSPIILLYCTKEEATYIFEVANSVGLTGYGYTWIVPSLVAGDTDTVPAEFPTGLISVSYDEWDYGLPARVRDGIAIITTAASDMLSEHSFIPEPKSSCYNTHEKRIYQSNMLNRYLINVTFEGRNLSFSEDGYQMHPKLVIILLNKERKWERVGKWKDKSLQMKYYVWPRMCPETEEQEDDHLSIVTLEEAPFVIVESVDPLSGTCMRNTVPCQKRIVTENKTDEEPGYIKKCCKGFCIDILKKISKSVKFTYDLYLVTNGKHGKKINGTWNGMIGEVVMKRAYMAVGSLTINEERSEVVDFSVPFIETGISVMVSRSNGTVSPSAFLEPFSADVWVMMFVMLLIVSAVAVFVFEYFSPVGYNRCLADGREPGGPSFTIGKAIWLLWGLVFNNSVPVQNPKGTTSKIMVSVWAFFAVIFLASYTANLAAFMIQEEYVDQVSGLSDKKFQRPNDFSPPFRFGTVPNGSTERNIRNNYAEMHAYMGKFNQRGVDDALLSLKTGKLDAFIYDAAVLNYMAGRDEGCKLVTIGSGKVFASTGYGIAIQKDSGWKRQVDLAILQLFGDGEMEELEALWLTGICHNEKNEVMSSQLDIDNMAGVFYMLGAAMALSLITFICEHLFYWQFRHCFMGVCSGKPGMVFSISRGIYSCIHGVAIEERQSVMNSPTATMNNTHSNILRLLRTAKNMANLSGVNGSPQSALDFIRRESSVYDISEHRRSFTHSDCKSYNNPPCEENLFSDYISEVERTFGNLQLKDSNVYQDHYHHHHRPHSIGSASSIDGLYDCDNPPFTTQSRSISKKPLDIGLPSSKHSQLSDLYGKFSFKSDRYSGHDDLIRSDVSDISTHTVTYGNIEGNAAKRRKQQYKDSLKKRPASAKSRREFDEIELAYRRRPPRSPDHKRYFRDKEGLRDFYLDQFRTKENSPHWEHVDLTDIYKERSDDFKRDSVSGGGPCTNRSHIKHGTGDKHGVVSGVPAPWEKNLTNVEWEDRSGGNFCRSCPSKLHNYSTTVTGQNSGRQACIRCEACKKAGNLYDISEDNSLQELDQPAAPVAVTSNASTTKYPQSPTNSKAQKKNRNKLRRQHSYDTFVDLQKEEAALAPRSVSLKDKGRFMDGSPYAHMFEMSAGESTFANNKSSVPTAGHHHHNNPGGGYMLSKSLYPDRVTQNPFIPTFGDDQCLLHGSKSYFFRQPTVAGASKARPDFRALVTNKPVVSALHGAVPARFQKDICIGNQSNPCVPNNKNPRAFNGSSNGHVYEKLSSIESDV
Format: cell-based
How it was run: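 In a stable Tet-On-induced cell line expressing human GluN1/GluN2B, Calcium 5-loaded cells were preincubated 5 min with compound, then stimulated 5 min with glutamate at ~EC80 plus 10 μM glycine, in pH 7.4 HEPES buffer. FLIPR calcium fluorescence was normalized to control wells.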
With `Cc1sc(C)c(-c2cnc3ccn(CC(=O)N(C)C)c3c2)c1C` [Example 428, N,N-Dimethyl-2-[6-(2,4,5-trimethyl-3-thienyl)pyrrolo[3,2-b]pyridin-1-yl]acetamide] the IC50 was 100 nM.
`CN(C)C(=O)Cn1ccc2ncc(-c3ccc(F)cc3)cc21` [Example 430, 2-[6-(4-Fluorophenyl)pyrrolo[3,2-b]pyridin-1-yl]-N,N-dimethyl-acetamide] showed an IC50 of 63.1 nM.
`CN(C)C(=O)Cn1ccc2ncc(-c3ccccc3F)cc21` [Example 431, 2-[6-(2-Fluorophenyl)pyrrolo[3,2-b]pyridin-1-yl]-N,N-dimethyl-acetamide] was tested, and the IC50 was 251 nM.
In the case of `Cc1cccc(-c2cnc3ccn(CC(=O)N(C)C)c3c2)c1F` [Example 432, 2-[6-(2-Fluoro-3-methyl-phenyl)pyrrolo[3,2-b]pyridin-1-yl]-N,N-dimethyl-acetamide], the IC50 is reported as 794 nM.
`CN(C)C(=O)Cn1ccc2ncc(-c3ccccc3)cc21` [Example 433, N,N-Dimethyl-2-(6-phenylpyrrolo[3,2-b]pyridin-1-yl)acetamide] gave an IC50 of 25.1 nM.
`CN(C)C(=O)Cn1ccc2ncc(-c3ccc(F)c(C(F)(F)F)c3)cc21` [Example 436, 2-[6-[4-Fluoro-3-(trifluoromethyl)phenyl]pyrrolo[3,2-b]pyridin-1-yl]-N,N-dimethyl-acetamide] showed an IC50 of 79.4 nM.
With `CN(C)C(=O)Cn1ccc2ncc(-c3ccc(F)c(F)c3F)cc21` [Example 437, N,N-Dimethyl-2-[6-(2,3,4-trifluorophenyl)pyrrolo[3,2-b]pyridin-1-yl]acetamide] the IC50 was 316 nM.
Work on `CN(C)C(=O)Cn1ccc2ncc(-c3csc(Cl)c3)cc21` [Example 439, 2-[6-(5-Chloro-3-thienyl)pyrrolo[3,2-b]pyridin-1-yl]-N,N-dimethyl-acetamide] yielded an IC50 of 50.1 nM.
For `CN(C)C(=O)Cn1ccc2ncc(-c3cc(Cl)sc3Cl)cc21` [Example 440, 2-[6-(2,5-Dichloro-3-thienyl)pyrrolo[3,2-b]pyridin-1-yl]-N,N-dimethyl-acetamide], the IC50 was 126 nM.
`Cc1ccc(F)c(-c2cnc3ccn(CC(=O)N(C)C)c3c2)c1F` [Example 444, 2-[6-(2,6-Difluoro-3-methyl-phenyl)pyrrolo[3,2-b]pyridin-1-yl]-N,N-dimethyl-acetamide] showed an IC50 of 631 nM.
For `Cc1ccc(F)c(-c2cnc3ccn(CC(=O)N(C)C)c3c2)c1` [Example 445, 2-[6-(2-Fluoro-5-methyl-phenyl)pyrrolo[3,2-b]pyridin-1-yl]-N,N-dimethyl-acetamide], the IC50 was 398 nM.
For `O=C(Cn1ccc2ncc(-c3cccc(C(F)F)c3)cc21)N1CCC1` [Example 446, 1-(Azetidin-1-yl)-2-[6-[3-(difluoromethyl)phenyl]pyrrolo[3,2-b]pyridin-1-yl]ethanone], the IC50 was 100 nM.
For `Cc1c(F)ccc(-c2cnc3ccn(CC(=O)N(C)C)c3c2)c1F` [Example 447, 2-[6-(2,4-Difluoro-3-methyl-phenyl)pyrrolo[3,2-b]pyridin-1-yl]-N,N-dimethyl-acetamide], the IC50 was 20 nM.
Work on `CN(C)C(=O)Cn1ccc2ncc(-c3cccc(Cl)c3F)cc21` [Example 448, 2-[6-(3-Chloro-2-fluoro-phenyl)pyrrolo[3,2-b]pyridin-1-yl]-N,N-dimethyl-acetamide] yielded an IC50 of 20 nM.
`CCc1cccc(-c2cnc3ccn(CC(=O)N(C)C)c3c2)c1` [Example 449, 2-[6-(3-Ethylphenyl)pyrrolo[3,2-b]pyridin-1-yl]-N,N-dimethyl-acetamide] was tested, and the IC50 was 63.1 nM.
In the case of `CN(C)C(=O)Cn1ccc2ncc(-c3cccc(F)c3)cc21` [Example 450, 2-[6-(3-Fluorophenyl)pyrrolo[3,2-b]pyridin-1-yl]-N,N-dimethyl-acetamide], the IC50 is reported as 39.8 nM.
`Cc1cccc(-c2cnc3ccn(CC(=O)N4CCC4)c3c2)c1F` [Example 451, 1-(Azetidin-1-yl)-2-[6-(2-fluoro-3-methyl-phenyl)pyrrolo[3,2-b]pyridin-1-yl]ethanone] was tested, and the IC50 was 50.1 nM.
With `Cc1c(F)ccc(-c2cnc3ccn(CC(=O)N4CCC4)c3c2)c1F` [Example 452, 1-(Azetidin-1-yl)-2-[6-(2,4-difluoro-3-methyl-phenyl)pyrrolo[3,2-b]pyridin-1-yl]ethanone] the IC50 was 25.1 nM.
Compound `O=C(Cn1ccc2ncc(-c3cccc(Cl)c3F)cc21)N1CCC1` [Example 453, 1-(Azetidin-1-yl)-2-[6-(3-chloro-2-fluoro-phenyl)pyrrolo[3,2-b]pyridin-1-yl]ethanone] has an IC50 of 25.1 nM.
`Cc1cccc(-c2cnc3ccn(CC(=O)N4CC(F)C4)c3c2)c1F` [Example 454, 1-(3-Fluoroazetidin-1-yl)-2-[6-(2-fluoro-3-methyl-phenyl)pyrrolo[3,2-b]pyridin-1-yl]ethanone] was tested, and the IC50 was 25.1 nM.
With `O=C(Cn1ccc2ncc(-c3ccc(F)c(F)c3F)cc21)N1CC(F)C1` [Example 455, 1-(3-Fluoroazetidin-1-yl)-2-[6-(2,3,4-trifluorophenyl)pyrrolo[3,2-b]pyridin-1-yl]ethanone] the IC50 was 31.6 nM.
In the case of `O=C(Cn1ccc2ncc(-c3ccc(F)c(Cl)c3)cc21)N1CCC1` [Example 456, 1-(Azetidin-1-yl)-2-[6-(3-chloro-4-fluoro-phenyl)pyrrolo[3,2-b]pyridin-1-yl]ethanone], the IC50 is reported as 63.1 nM.
Work on `O=C(Cn1ccc2ncc(-c3ccccc3F)cc21)N1CC(F)C1` [Example 457, 1-(3-Fluoroazetidin-1-yl)-2-[6-(2-fluorophenyl)pyrrolo[3,2-b]pyridin-1-yl]ethanone] yielded an IC50 of 15.8 nM.
With `O=C(Cn1ccc2ncc(-c3cccc(C(F)F)c3)cc21)N1CC(F)C1` [Example 458, 2-[6-[3-(Difluoromethyl)phenyl]pyrrolo[3,2-b]pyridin-1-yl]-1-(3-fluoroazetidin-1-yl)ethanone] the IC50 was 398 nM.
`CCN(C)C(=O)Cn1ccc2ncc(-c3cccc(C)c3)cc21` [Example 459, N-Ethyl-N-methyl-2-[6-(m-tolyl)pyrrolo[3,2-b]pyridin-1-yl]acetamide] gave an IC50 of 39.8 nM.
In the case of `Cc1c(F)ccc(-c2cnc3ccn(CC(=O)N4CC(F)C4)c3c2)c1F` [Example 460, 2-[6-(2,4-Difluoro-3-methyl-phenyl)pyrrolo[3,2-b]pyridin-1-yl]-1-(3-fluoroazetidin-1-yl)ethanone], the IC50 is reported as 63.1 nM.
Work on `CCN(C)C(=O)Cn1ccc2ncc(-c3ccc(F)c(F)c3)cc21` [Example 461, 2-[6-(3,4-Difluorophenyl)pyrrolo[3,2-b]pyridin-1-yl]-N-ethyl-N-methyl-acetamide] yielded an IC50 of 31.6 nM.
In the case of `CCN(C)C(=O)Cn1ccc2ncc(-c3cc(F)c(F)c(F)c3)cc21` [Example 462, N-Ethyl-N-methyl-2-[6-(3,4,5-trifluorophenyl)pyrrolo[3,2-b]pyridin-1-yl]acetamide], the IC50 is reported as 126 nM.
In the case of `O=C(Cn1ccc2ncc(-c3cccc(Cl)c3)cc21)N1CCC1` [Example 463, 1-(Azetidin-1-yl)-2-[6-(3-chlorophenyl)pyrrolo[3,2-b]pyridin-1-yl]ethanone], the IC50 is reported as 100 nM.
Work on `CCN(C)C(=O)Cn1ccc2ncc(-c3cccc(C(F)(F)F)c3F)cc21` [Example 464, N-Ethyl-2-[6-[2-fluoro-3-(trifluoromethyl)phenyl]pyrrolo[3,2-b]pyridin-1-yl]-N-methyl-acetamide] yielded an IC50 of 12.6 nM.
In the case of `O=C(Cn1ccc2ncc(-c3cccc(Cl)c3)cc21)N1CC(F)C1` [Example 465, 2-[6-(3-Chlorophenyl)pyrrolo[3,2-b]pyridin-1-yl]-1-(3-fluoroazetidin-1-yl)ethanone], the IC50 is reported as 79.4 nM.
`O=C(Cn1ccc2ncc(-c3cccc(Cl)c3F)cc21)N1CC(F)C1` [Example 466, 2-[6-(3-Chloro-2-fluoro-phenyl)pyrrolo[3,2-b]pyridin-1-yl]-1-(3-fluoroazetidin-1-yl)ethanone] was tested, and the IC50 was 20 nM.
Work on `O=C(Cn1ccc2ncc(-c3ccc(F)c(Cl)c3)cc21)N1CC(F)C1` [Example 467, 2-[6-(3-Chloro-4-fluoro-phenyl)pyrrolo[3,2-b]pyridin-1-yl]-1-(3-fluoroazetidin-1-yl)ethanone] yielded an IC50 of 63.1 nM.
Compound `CCN(C)C(=O)Cn1ccc2ncc(-c3ccc(F)c(C)c3F)cc21` [Example 469, 2-[6-(2,4-Difluoro-3-methyl-phenyl)pyrrolo[3,2-b]pyridin-1-yl]-N-ethyl-N-methyl-acetamide] has an IC50 of 15.8 nM.
For `CCN(C)C(=O)Cn1ccc2ncc(-c3cccc(C(F)(F)F)c3)cc21` [Example 470, N-Ethyl-N-methyl-2-[6-[3-(trifluoromethyl)phenyl]pyrrolo[3,2-b]pyridin-1-yl]acetamide], the IC50 was 200 nM.
For `O=C(Cn1cc(F)c2ncc(-c3ccccc3F)cc21)N1CCC1` [Example 471, 1-(Azetidin-1-yl)-2-[3-fluoro-6-(2-fluorophenyl)pyrrolo[3,2-b]pyridin-1-yl]ethanone], the IC50 was 100 nM.
`Cc1cccc(-c2cnc3c(F)cn(CC(=O)N4CCC4)c3c2)c1F` [Example 472, 1-(Azetidin-1-yl)-2-[3-fluoro-6-(2-fluoro-3-methyl-phenyl)pyrrolo[3,2-b]pyridin-1-yl]ethanone] showed an IC50 of 200 nM.
In the case of `Cc1cccc(-c2cnc3c(F)cn(CC(=O)N4CCC4)c3c2)c1` [Example 473, 1-(Azetidin-1-yl)-2-[3-fluoro-6-(m-tolyl)pyrrolo[3,2-b]pyridin-1-yl]ethanone], the IC50 is reported as 31.6 nM.
`O=C(Cn1cc(F)c2ncc(-c3cc(F)cc(F)c3)cc21)N1CCC1` [Example 474, 1-(Azetidin-1-yl)-2-[6-(3,5-difluorophenyl)-3-fluoro-pyrrolo[3,2-b]pyridin-1-yl]ethanone] showed an IC50 of 31.6 nM.
`O=C(Cn1cc(F)c2ncc(-c3cccc(C(F)(F)F)c3)cc21)N1CCC1` [Example 475, 1-(Azetidin-1-yl)-2-[3-fluoro-6-[3-(trifluoromethyl)phenyl]pyrrolo[3,2-b]pyridin-1-yl]ethanone] gave an IC50 of 25.1 nM.
With `O=C(Cn1cc(F)c2ncc(-c3cccc(C(F)(F)F)c3F)cc21)N1CCC1` [Example 476, 1-(Azetidin-1-yl)-2-[3-fluoro-6-[2-fluoro-3-(trifluoromethyl)phenyl]pyrrolo[3,2-b]pyridin-1-yl]ethanone] the IC50 was 50.1 nM.
Compound `O=C(Cn1cc(F)c2ncc(-c3ccc(F)c(F)c3F)cc21)N1CCC1` [Example 477, 1-(Azetidin-1-yl)-2-[3-fluoro-6-(2,3,4-trifluorophenyl)pyrrolo[3,2-b]pyridin-1-yl]ethanone] has an IC50 of 50.1 nM.
